According to US9650339B2, “Inhibitors of histone demethylases” (Gilead Sciences, Inc., priority 2013, dated 2017):
Where two headings read alike, the source gives them in different places.

How the values were obtained:
KDM4C (JMJD2C) = molecular target: T1, KDM4C (JMJD2C) (Homo sapiens, UniProt Q9H3R0); experiment: Histone lysine demethylase AlphaLISA assay, KDM4C; type: biochemical
T1 sequence (Q9H3R0 1-349): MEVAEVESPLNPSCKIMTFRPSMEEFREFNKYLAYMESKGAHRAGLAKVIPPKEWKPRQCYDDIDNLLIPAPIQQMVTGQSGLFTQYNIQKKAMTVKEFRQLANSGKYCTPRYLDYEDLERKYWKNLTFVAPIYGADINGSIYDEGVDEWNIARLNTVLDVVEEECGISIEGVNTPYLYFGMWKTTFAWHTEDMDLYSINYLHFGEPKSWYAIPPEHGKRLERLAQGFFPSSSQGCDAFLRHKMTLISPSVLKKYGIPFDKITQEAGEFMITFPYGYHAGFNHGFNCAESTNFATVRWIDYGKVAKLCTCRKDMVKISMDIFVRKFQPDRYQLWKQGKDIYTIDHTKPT
Experimental: (§1) Assays are performed analogously to the protocol described by PerkinElmer (Roy et al. PerkinElmer Technical Note: AlphaLISA #12, April 2011)
(§2) Enzymes are dissolved in enzyme buffer and incubated for 10 min before being added to 3% DMSO solutions of compounds in enzyme buffer. Incubated for another 10 minutes, before substrate solution is added and the reaction mixture is incubated at room temperature. 10 μL acceptor beads, suspended in Epigenetic Buffer (Perkin Elmer AL008) from stock, are added and the suspension is incubated in the dark at room temperature, before a suspension of streptavidin donor beads (Perkin Elmer 6760002) in Epigenetic Buffer is added. After incubation at room temperature in the dark the plates are read.
BK9M3: Biotin-ARTKQTAR(KMe3)STGGKAPRKQ-NH2 (Caslo, Denmark) […]
(§3) Substrate Solution: Substrate, 25 μM L-Asc, and 10 μM α-KG in Buffer A.

KDM5B (PLU-1) = molecular target: T2, KDM5B (PLU-1) (Homo sapiens, UniProt Q9UGL1); experiment: Histone lysine demethylase AlphaLISA assay, KDM5B; type: biochemical
T2 sequence (Q9UGL1 1-809): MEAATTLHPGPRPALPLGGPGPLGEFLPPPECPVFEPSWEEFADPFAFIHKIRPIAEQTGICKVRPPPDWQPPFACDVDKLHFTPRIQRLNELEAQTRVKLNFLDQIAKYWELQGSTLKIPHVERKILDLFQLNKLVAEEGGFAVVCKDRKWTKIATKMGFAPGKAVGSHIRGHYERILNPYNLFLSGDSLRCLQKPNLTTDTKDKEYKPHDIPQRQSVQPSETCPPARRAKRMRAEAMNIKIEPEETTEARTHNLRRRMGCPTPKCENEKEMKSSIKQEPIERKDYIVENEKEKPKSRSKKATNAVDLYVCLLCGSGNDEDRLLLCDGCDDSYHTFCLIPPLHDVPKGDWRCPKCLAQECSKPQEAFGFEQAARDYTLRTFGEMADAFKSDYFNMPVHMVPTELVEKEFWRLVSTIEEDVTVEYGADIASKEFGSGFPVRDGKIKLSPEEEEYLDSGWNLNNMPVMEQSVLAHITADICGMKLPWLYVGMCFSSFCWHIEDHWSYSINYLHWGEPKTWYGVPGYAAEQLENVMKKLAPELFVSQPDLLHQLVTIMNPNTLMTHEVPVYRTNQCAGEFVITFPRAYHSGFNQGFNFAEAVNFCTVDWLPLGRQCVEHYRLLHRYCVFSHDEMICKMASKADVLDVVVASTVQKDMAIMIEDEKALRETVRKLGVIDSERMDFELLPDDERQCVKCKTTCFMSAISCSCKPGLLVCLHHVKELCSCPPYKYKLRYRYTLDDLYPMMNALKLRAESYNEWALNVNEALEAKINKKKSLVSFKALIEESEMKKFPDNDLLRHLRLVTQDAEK
Experimental: as §1
as §2, with “read. […]” for “read.”
H3K4M3B: H-ART(Kme3)QTARKSTGGKAPRKQLA-NH-Biotin (Caslo, Denmark) […]
as §3

MCF7 cells = experiment: Cell proliferation assay MCF7; type: cell-based; details: MCF7 human breast cancer cells; 120 hours; ATPlite 1 Step
Experimental: MCF7 cells were seeded in multi well plates at a density optimized to give approximately 90% confluent cells at the time of harvest. Cells were incubated for 24 hours before addition of compound. Compounds were diluted in complete medium and added to the plates in duplicates. The final concentration of DMSO was maximum 0.5%. Complete medium used was DMEM with GlutaMAX containing 10% FBS and pen/strep.
120 hours after addition of compounds, the plates were harvested and analyzed by ATPlite 1 Step (Perkin Elmer, cat no 6016739) according to the manufactures recommendation.

KDM6A (UTX) = KDM6A (UTX) (Homo sapiens, UniProt O15550); experiment: Histone lysine demethylase AlphaLISA assay, KDM6A; type: biochemical
Experimental: as §1
as §2, with “read. […]” for “read.”
BK27M3: Biotin-ATKAAR(Kme3)SAPATGGVKKPHRY-NH2? (Caslo, Denmark) […]
as §3

KDM2B (FBXL10) = molecular target: T3, KDM2B (FBXL10) (Homo sapiens, UniProt Q8NHM5); experiment: Histone lysine demethylase AlphaLISA assay, KDM2B; type: biochemical; details: read-out: KDM2B HDME Inhibition IC50
T3 sequence (Q8NHM5 1-650): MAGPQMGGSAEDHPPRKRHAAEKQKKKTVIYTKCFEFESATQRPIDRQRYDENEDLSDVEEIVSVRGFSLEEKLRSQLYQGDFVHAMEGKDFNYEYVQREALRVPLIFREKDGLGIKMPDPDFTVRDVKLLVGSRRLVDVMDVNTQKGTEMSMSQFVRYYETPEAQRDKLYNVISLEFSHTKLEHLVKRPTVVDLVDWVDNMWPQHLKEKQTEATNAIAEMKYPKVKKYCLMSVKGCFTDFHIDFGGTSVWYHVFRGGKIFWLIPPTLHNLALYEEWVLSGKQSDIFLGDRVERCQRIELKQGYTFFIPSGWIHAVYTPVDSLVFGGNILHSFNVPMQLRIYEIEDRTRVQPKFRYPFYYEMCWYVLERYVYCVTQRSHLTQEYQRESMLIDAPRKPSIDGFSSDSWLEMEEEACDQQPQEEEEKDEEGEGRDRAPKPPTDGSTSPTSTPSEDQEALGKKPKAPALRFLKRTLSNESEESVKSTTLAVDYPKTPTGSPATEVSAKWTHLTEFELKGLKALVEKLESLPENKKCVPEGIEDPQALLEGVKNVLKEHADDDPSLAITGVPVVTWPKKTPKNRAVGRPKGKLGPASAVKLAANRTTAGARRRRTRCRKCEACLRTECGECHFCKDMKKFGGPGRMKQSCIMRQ
Experimental: as §1
as §2, with “read. […]” for “read.”
BH3K36M2: RKAAPATGGVK(Me2)KPHRYRPGTVK-(BIOTIN)? (Anaspec)
as §3

[1] = read-out: KDM4C HDME Inhibition IC50
[2] = read-out: KDM5B HDME Inhibition IC50
[3] = read-out: KDM6A HDME Inhibition IC50

KDM6A (UTX), sequence (O15550 919-1401): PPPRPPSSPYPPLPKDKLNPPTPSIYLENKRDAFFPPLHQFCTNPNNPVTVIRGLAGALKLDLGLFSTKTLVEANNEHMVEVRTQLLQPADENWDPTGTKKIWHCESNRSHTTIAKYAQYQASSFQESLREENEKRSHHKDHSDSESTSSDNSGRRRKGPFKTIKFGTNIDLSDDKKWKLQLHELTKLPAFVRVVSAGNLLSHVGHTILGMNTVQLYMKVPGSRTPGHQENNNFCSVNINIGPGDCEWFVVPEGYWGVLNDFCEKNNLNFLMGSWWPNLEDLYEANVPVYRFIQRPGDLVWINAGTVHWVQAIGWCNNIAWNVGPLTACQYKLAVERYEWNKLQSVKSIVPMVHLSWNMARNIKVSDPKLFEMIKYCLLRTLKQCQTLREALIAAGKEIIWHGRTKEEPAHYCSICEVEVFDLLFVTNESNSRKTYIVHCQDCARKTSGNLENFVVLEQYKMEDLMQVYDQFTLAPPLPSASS

Row | EC50 (MCF7 cells) | IC50 (KDM4C (JMJD2C); [1]) | IC50 (KDM5B (PLU-1); [2]) | IC50 (KDM2B (FBXL10)) | IC50 (KDM6A (UTX); [3]) | SMILES | IC50 (KDM4C (JMJD2C)) | IC50 (KDM5B (PLU-1)) | IC50 (KDM6A (UTX))
1 | > 2500 nM | 250 to 2500 nM | < 250 nM | – | > 2500 nM | CCN(CC)C(=O)CNCc1cc(/C=N/CCc2ccc(C)cc2)ccn1 [Compound 69, N,N-diethyl-2-[({4-[{[2-(4-methylphenyl)-ethyl]imino}-methyl]pyridin-2-yl}methyl)amino]-acetamide] | – | – | –
2 | < 250 nM | > 2500 nM | < 250 nM | – | > 2500 nM | CCN(CC)CCCCNCc1cc(/C=N/CCCO)ccn1 [Compound 71, 3-[{[2-({[4-(diethylamino)-butyl]amino}methyl)pyridin-4-yl]methylidene}amino]-propan-1-ol] | – | – | –
3 | < 250 nM | > 2500 nM | 250 to 2500 nM | > 2500 nM | > 2500 nM | CCN(CC)CCCCNCc1cc(C2NCC3(CCCC3)CO2)ccn1 (stereo not drawn) [Compound 72, [4-(diethylamino)-butyl][(4-{7-oxa-9-azaspiro[4.5]decan-8-yl}pyridin-2-yl)methyl]amine] | – | – | –
4 | < 250 nM | > 2500 nM | < 250 nM | – | – | CCN(CC)CCCCNCc1cc(/C=N/C(C)CO)ccn1 (stereo not drawn) [Compound 73, 2-[{[2-({[4-(diethylamino)-butyl]amino}-methyl)pyridin-4-yl]methylidene}-amino]propan-1-ol] | – | – | –
5 | < 250 nM | > 2500 nM | < 250 nM | – | – | CCN(CC)CCCCNCc1cc(/C=N/C(CO)c2ccccc2)ccn1 (stereo not drawn) [Compound 75, 2-[{[2-({[4-(diethylamino)-butyl]amino}-methyl)pyridin-4-yl]methylidene}-amino]-2-phenylethan-1-ol] | – | – | –
6 | < 250 nM | > 2500 nM | 250 to 2500 nM | > 2500 nM | – | CCN(CC)CCCCNCc1cc(/C=N/CC(C)(C)CO)ccn1 [Compound 76, 3-[{[2-({[4-(diethylamino)-butyl]amino}-methyl)pyridin-4-yl]methylidene}-amino]-2,2-dimethylpropan-1-ol] | – | – | –
7 | < 250 nM | 250 to 2500 nM | < 250 nM | > 2500 nM | – | CCN(CCN(C)C)C(=O)CNCc1cc(/C=N/CCCO)ccn1 [Compound 78, N-[2-(dimethylamino)-ethyl]-N-ethyl-2-[({4-[[(3-hydroxypropyl)imino]-methyl]pyridin-2-yl}-methyl)amino]-acetamide] | – | – | –
8 | 250 to 2500 nM | < 250 nM | < 250 nM | 250 to 2500 nM | > 2500 nM | CCN(CC)CCCCNCc1cc(/C=N/CC(CO)Cc2ccccc2)ccn1 (stereo not drawn) [Compound 80, 2-{[{[2-({[4-(diethylamino)-butyl]amino}methyl)pyridin-4-yl]methylidene}-amino]methyl}-3-phenylpropan-1-ol] | – | – | –
9 | < 250 nM | > 2500 nM | 250 to 2500 nM | > 2500 nM | > 2500 nM | CCN(CC)CCCCNCc1cc(/C=N/CC(O)Cc2ccccc2)ccn1 (stereo not drawn) [Compound 84, 1-[{[2-({[4-(diethylamino)-butyl]amino}methyl)pyridin-4-yl]methylidene}amino]-3-phenylpropan-2-ol] | – | – | –
10 | < 250 nM | – | < 250 nM | > 2500 nM | > 2500 nM | CCN(CCN(C)C)C(=O)CNCc1cc(/C=N/CC(O)CN(C)C)ccn1 (stereo not drawn) [Compound 86, 2-[({4-[{[3-(dimethylamino)-2-hydroxypropyl]imino}-methyl]pyridin-2-yl}methyl)amino]-N-[2-(dimethylamino)-ethyl]-N-ethylacetamide] | – | – | –
11 | < 250 nM | 250 to 2500 nM | < 250 nM | > 2500 nM | – | CCN(CCN(C)C)C(=O)CNCc1cc(C2NCC(C)(C)CO2)ccn1 (stereo not drawn) [Compound 87, 2-({[4-(5,5-dimethyl-1,3-oxazinan-2-yl)pyridin-2-yl]methyl}amino)-N-[2-(dimethylamino)-ethyl]-N-ethylacetamide] | – | – | –
12 | < 250 nM | 250 to 2500 nM | < 250 nM | > 2500 nM | > 2500 nM | CCN(CCN(C)C)C(=O)CNCc1cc(/C=N/CC(CO)Cc2ccccc2)ccn1 (stereo not drawn) [Compound 89, 2-[({4-[[(2-benzyl-3-hydroxypropyl)imino]methyl]pyridin-2-yl}methyl)amino]-N-[2-(dimethylamino)ethyl]-N-ethylacetamide] | – | – | –
13 | 250 to 2500 nM | 250 to 2500 nM | < 250 nM | – | > 2500 nM | CN(C)C1CCC(CNCc2cc(C=O)ccn2)C1 (stereo not drawn) [Compound 117, 2-[({[3-(dimethylamino)-cyclopenyl]methyl}-amino)methyl] pyridine-4-carbaldehyde] | – | – | –

Row | SMILES | EC50 (MCF7 cells) | IC50 (KDM4C (JMJD2C); [1]) | IC50 (KDM5B (PLU-1); [2]) | IC50 (KDM2B (FBXL10)) | IC50 (KDM6A (UTX); [3]) | IC50 (KDM4C (JMJD2C)) | IC50 (KDM5B (PLU-1)) | IC50 (KDM6A (UTX))
14 | CCOC(=O)c1ccccc1OC(=O)NCc1ccnc(CNCC(=O)N(CC)CCN(C)C)c1 [Compound 29, ethyl 2-({[(2-{[({[2-(dimethylamino)-ethyl](ethyl)-carbamoyl}methyl)-amino]methyl}pyridin-4-yl)methyl]-carbamoyl}-oxy)benzoate] | 250 to 2500 nM | – | – | – | – | > 2500 nM | 250 to 2500 nM | > 2500 nM
15 | CCN(CCN(C)C)C(=O)CNCc1cc(CNC(=O)C(F)(F)C(F)(F)C(F)(F)F)ccn1 [Compound 31, N-[(2-{[({[2-(dimethylamino)ethyl] (ethyl)carbamoyl}-methyl)amino]methyl}-pyridin-4-yl)-methyl]-2,2,3,3,4,4,4-heptafluorobutanamide] | 250 to 2500 nM | > 2500 nM | 250 to 2500 nM | > 2500 nM | > 2500 nM | – | – | –
